Experimental findings from US20250002471A1 (Gilead Sciences, Inc., priority 2020, published 2025) are described below.

Experiment [1] concerns the target cloned hERG potassium channel encoded by the KCNH2 gene (Homo sapiens, UniProt Q12809). As to the kind of experiment: hERG FASTPatch assay (QPatch patch clamp, HEK293T cells). It counts as cell-based. The following applies: HEK293T cells, 1, 3, 10 and 30 uM, room temperature; Table 27. On the procedure: The FASTPatch® Assay (Charles River) was used to examine the in vitro effects of the compounds provided herein on the cloned hERG potassium channel encoded by the KCNH2 gene and stably expressed in HEK293T cells. Vehicle, test and control article formulations were prepared by diluting DMSO stock solutions in HB-PS (HEPES-buffered physiological saline solution) and were delivered to cells via the QPatch robot pipetting system to a final concentration of 0.3% DMSO. Test compound final concentrations of 1, 3, 10 and 30 uM were applied to cells (n >3, where n=the number of cells/concentration) in ascending order in at least three minute intervals separated by solution exchange. The positive control, 50 nM cisparide, was applied in the same manner. Cell membrane currents were recorded at room temperature with up to 48 parallel patch clamp amplifiers in the QPatch HT® or QPatch HTX® system, and only cells with validated whole-cell recordings (seal resistance >200 MQ and leak current <25% channel current) were used. Onset and block of hERG current was measured using a stimulus voltage pattern consisting of a 500 ms prepulse to −40 mV, a 2-second activating pulse to +40 mV, followed by a 2-second test pulse to −40 mV. The pulse pattern was repeated continuously at 10-second intervals from a holding potential of −80 mV. % Block={1-1/[1+([Test]/IC50)^N]}*100% Where [Test] is the concentration of test article, IC50 is the concentration of the test article producing half-maximal inhibition, N is the Hill coefficient and % Block is the percentage of current inhibited at each concentration of the test article. Nonlinear least squares fits will be solved with the Solver add-in for Excel 2000 or later (Microsoft, Redmon, WA). TurboSol analysis for test compound solubility was performed for each concentration tested using a Nephelostar reader measuring light scatter from a 635 nm laser source. Based on validation experiments, light scatter above four times the background level was considered an indication of the presence of particles in suspension.

The target of experiment [2] is T1, TLR7 (Homo sapiens, UniProt Q9NYK1).
T1 construct: lymphocytes, monocytes and dendritic cells that express TLR7, TLR8 and TLR9; endogenous in cells; host or cells: human PBMCs from healthy donors
T1 sequence (Q9NYK1 27-1049): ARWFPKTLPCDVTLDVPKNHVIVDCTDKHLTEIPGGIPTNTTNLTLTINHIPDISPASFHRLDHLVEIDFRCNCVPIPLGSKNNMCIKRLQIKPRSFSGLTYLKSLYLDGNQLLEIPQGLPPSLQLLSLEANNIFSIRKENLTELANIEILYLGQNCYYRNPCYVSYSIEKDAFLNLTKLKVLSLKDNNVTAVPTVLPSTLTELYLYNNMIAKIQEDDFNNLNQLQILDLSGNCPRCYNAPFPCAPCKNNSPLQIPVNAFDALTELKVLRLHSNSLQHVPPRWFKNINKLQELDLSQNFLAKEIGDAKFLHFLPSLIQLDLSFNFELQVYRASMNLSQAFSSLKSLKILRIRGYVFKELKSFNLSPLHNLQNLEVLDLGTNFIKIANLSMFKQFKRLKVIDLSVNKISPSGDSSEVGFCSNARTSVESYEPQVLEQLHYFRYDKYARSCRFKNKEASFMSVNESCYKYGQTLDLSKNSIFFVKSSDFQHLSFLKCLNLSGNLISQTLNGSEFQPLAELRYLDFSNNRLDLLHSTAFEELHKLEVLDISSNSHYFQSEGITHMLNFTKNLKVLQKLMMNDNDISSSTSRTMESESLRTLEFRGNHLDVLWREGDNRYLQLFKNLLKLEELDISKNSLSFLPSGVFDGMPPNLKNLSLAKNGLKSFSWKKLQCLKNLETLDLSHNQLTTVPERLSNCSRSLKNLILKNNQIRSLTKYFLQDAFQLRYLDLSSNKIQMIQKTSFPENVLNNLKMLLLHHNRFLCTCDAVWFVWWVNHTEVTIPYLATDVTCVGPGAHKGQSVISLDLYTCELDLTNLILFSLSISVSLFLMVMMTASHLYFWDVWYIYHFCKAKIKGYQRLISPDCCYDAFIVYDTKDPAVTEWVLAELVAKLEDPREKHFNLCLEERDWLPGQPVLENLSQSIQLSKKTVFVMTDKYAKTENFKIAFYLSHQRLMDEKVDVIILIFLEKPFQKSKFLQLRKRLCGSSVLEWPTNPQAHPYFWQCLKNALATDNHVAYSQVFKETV
As to the kind of experiment: Human PBMC cell-based assay, TLR7 agonist GS-986 stimulation, cytokine (IL-6 and IFNα) readout. Conditions: human PBMCs; Table 27 comparison; read-out: TLR-7 EC50. In a few lines:
(§1)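 Readout is IL-6 and IFNα in supernatants, quantified by electrochemiluminescence, with EC50 from a sigmoidal fit of cytokine versus concentration. Healthy-donor human PBMCs, 100,000 per well, got antagonist for 1 h at 37 °C, then 6 h agonist exposure: TLR7 via GS-986 at 400 nM final, TLR9 via ODN-2216 at 3 μM final.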

In experiment [3] the target is T2, TLR9 (Homo sapiens, UniProt Q9NR96).
T2 construct: lymphocytes, monocytes and dendritic cells that express TLR7, TLR8 and TLR9; endogenous in cells; host or cells: human PBMCs from healthy donors
T2 sequence (Q9NR96 26-1032): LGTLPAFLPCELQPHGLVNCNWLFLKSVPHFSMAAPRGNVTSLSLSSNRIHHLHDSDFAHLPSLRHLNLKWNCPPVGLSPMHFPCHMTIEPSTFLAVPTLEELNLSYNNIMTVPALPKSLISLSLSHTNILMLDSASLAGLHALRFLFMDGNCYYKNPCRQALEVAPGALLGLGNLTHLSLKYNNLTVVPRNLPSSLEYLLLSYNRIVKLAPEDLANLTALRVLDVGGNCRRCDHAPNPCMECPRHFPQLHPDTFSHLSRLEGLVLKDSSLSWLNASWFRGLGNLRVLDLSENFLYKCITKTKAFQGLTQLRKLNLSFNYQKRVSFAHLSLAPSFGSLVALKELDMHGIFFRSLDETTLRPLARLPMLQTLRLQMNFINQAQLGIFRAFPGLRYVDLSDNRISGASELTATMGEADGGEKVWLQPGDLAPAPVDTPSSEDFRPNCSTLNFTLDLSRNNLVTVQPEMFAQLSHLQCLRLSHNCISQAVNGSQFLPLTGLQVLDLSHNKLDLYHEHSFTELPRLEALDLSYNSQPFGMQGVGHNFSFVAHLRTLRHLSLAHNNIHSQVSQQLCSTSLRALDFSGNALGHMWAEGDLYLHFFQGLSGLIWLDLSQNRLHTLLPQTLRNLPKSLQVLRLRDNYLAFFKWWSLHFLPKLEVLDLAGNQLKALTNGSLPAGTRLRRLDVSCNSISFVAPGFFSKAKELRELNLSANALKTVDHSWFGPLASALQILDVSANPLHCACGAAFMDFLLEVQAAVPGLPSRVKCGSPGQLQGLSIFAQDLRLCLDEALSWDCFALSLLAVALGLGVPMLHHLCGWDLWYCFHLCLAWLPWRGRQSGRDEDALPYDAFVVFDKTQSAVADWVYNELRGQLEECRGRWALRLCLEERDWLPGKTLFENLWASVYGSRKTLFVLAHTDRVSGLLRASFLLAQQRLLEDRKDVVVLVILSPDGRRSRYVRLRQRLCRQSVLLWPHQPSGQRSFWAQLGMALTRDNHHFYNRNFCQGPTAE
As to the kind of experiment: Human PBMC cell-based assay, TLR9 agonist ODN-2216 stimulation, cytokine (IL-6 and IFNα) readout. Conditions: human PBMCs; Table 27 comparison; read-out: TLR-9 EC50. In a few lines:
as §1

pEC50, pIC50: −log10 of the molar value.

Sequence of cloned hERG potassium channel encoded by the KCNH2 gene (Q12809 whole entry): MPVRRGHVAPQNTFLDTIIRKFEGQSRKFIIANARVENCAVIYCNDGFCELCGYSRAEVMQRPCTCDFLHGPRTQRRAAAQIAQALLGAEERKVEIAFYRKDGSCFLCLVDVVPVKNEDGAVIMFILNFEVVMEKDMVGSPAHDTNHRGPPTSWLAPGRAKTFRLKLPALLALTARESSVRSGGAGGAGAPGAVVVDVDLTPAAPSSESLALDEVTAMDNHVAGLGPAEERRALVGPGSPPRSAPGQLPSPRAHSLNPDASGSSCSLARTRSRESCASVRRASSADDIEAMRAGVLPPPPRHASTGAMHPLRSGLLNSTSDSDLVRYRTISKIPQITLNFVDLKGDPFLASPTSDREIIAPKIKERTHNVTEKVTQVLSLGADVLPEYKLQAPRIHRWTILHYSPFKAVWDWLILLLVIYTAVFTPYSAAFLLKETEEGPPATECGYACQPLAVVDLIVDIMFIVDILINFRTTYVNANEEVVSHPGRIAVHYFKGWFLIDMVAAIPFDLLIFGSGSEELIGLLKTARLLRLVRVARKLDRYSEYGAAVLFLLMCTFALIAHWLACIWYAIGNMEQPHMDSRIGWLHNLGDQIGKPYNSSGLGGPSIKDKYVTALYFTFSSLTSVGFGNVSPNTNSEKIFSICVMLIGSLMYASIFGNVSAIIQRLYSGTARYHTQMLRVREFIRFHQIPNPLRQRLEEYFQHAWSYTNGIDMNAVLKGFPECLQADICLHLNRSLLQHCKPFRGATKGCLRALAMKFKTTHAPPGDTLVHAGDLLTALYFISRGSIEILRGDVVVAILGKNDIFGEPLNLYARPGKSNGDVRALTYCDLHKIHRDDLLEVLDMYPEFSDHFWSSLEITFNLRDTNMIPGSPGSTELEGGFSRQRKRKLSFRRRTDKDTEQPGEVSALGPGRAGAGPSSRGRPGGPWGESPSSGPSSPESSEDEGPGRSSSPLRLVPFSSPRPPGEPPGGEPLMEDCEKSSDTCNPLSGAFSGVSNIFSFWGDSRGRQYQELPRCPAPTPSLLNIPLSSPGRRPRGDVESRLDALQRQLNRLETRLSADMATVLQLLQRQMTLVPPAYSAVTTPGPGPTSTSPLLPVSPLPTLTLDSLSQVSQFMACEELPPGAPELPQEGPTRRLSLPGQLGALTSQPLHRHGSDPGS

As a reminder, the pIC50 is the IC50 on a negative log10 scale, so that one unit is a factor of ten. Low values mean a high IC50, high ones a low IC50. By pEC50 is commonly meant the negative decadic logarithm of the EC50, by convention in mol/L. In experiment [1], `Cc1cc(-c2[nH]c3ccc(-c4ccnc(N5CCNCC5)c4)cc3c2C(C)C)cc(C)n1` [Example B, reference compound] showed a pIC50 of 5.68. The pEC50 was 8.11 in experiment [2] and 6.55 in experiment [3].
